According to ChEMBL document CHEMBL6096703 (J Med Chem, 2025):
pIC50: −log10 of the molar value.

Columns and labels:
MDA-MB-436 [1] = assay: Antiproliferative activity against human MDA-MB-436 cells assessed as inhibition of cell proliferation at 100 nM incubated for 7 days by CCK-8 assay relative to control; assay type: functional; settings: MDA-MB-436, 168 h, time 7 day
[2] = target: T1, Poly [ADP-ribose] polymerase 1 (Homo sapiens, UniProt P09874); assay: Inhibition of PARP1 (unknown origin) at 1 nM preincubated with compound for 10 mins followed by DNA and NAD+ addition and measured after 60 mins by chemiluminescence based envision reader analysis relative to control; settings: time 70.0 min
T1 sequence (P09874 whole entry): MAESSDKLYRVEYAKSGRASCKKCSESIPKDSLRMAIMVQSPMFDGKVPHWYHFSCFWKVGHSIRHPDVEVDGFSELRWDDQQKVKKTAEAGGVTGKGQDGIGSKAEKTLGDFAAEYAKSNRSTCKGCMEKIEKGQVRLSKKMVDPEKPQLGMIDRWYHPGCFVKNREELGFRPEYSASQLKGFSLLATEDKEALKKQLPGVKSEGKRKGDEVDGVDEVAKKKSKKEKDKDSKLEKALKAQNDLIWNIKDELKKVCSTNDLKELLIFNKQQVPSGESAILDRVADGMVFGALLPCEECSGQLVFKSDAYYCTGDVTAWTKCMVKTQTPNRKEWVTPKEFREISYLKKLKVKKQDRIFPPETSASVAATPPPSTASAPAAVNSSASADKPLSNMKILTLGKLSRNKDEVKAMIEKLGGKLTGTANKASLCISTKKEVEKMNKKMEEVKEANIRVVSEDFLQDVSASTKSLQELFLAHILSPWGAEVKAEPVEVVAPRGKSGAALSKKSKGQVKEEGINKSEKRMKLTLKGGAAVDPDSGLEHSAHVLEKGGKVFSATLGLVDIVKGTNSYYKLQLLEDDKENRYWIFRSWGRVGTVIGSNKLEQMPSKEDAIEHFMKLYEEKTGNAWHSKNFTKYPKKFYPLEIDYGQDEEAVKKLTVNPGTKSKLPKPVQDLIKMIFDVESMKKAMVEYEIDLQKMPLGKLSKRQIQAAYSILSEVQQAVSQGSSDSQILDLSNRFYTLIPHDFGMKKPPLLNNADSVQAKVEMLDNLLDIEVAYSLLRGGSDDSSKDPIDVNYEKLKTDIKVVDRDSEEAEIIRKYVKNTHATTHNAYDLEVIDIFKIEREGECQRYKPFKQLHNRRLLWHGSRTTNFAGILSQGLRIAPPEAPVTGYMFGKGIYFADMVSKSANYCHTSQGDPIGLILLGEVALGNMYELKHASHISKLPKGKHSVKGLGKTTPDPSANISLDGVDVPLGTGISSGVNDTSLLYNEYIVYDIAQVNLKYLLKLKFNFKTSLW

[3] = target: T2, Poly [ADP-ribose] polymerase 2 (Homo sapiens, UniProt Q9UGN5); assay: Inhibition of PARP2 (unknown origin) at 1 uM preincubated with compound for 10 mins followed by DNA and NAD+ addition and measured after 60 mins by chemiluminescence based envision reader analysis relative to control; settings: time 70.0 min
T2 sequence (Q9UGN5 whole entry): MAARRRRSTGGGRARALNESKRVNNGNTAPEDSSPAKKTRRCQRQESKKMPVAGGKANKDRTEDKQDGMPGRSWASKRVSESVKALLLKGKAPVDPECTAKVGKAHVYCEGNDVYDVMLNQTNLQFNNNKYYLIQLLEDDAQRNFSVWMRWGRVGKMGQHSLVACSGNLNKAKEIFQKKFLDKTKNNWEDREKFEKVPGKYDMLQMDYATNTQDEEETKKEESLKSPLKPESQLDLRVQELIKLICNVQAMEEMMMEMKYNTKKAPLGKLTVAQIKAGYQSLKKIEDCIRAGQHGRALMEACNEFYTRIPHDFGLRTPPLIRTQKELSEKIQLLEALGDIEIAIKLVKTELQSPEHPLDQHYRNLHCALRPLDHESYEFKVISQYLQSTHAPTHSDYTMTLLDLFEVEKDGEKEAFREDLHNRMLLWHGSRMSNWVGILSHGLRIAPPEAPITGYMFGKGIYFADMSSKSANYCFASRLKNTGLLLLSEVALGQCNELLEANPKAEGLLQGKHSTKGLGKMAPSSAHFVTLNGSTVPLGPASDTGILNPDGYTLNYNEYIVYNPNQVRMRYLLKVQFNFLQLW

[4] = target: T2, Poly [ADP-ribose] polymerase 2; assay: Inhibition of PARP2 (unknown origin) preincubated with compound for 10 mins followed by DNA and NAD+ addition and measured after 60 mins by chemiluminescence based envision reader analysis
[5] = AUC(0 to t) in male Balb/c mouse at 1 mg/kg, po measured upto 96 hrs by LC-MS/MS analysis; assay type: ADME, organism-based; settings: male, Balb/c, in vivo
MDA-MB-436 [6] = assay: Antiproliferative activity against human MDA-MB-436 cells assessed as reduction in cell viability incubated for 7 days by CCK-8 assay; assay type: functional, cell-based; settings: MDA-MB-436, 168 h
[7] = target: T1, Poly [ADP-ribose] polymerase 1; assay: Inhibition of PARP1 (unknown origin) preincubated with compound for 10 mins followed by DNA and NAD+ addition and measured after 60 mins by chemiluminescence based envision reader analysis
[8] = Cmax in male Balb/c mouse at 1 mg/kg, po measured upto 96 hrs by LC-MS/MS analysis; assay type: ADME, organism-based; settings: in vivo
[9] = Half life in male Balb/c mouse at 1 mg/kg, po measured upto 96 hrs by LC-MS/MS analysis; assay type: ADME, organism-based; settings: male, Balb/c, in vivo
[10] = Clearance in male Balb/c mouse at 1 mg/kg, po measured upto 96 hrs by LC-MS/MS analysis; assay type: ADME, organism-based; settings: male, Balb/c, in vivo

CCc1cc2ncc(CN3CC=C(c4ccc(C#N)c(F)c4F)CC3)cc2[nH]c1=O
inhibition at 0.1 µM (MDA-MB-436 [1]): 45.1% | inhibition [2]: 54.7%

CCc1cc2ncc(CN3CC=C(c4ccncc4C#N)CC3)cc2[nH]c1=O
inhibition at 0.1 µM (MDA-MB-436 [1]): 9.8% | inhibition [2]: 13.7%

CCc1cc2ncc(CN3CC=C(c4ccc(F)c(C)c4)CC3)cc2[nH]c1=O
inhibition at 0.1 µM (MDA-MB-436 [1]): 30.2% | inhibition [2]: 46.6%

CCc1cc2ncc(CN3CC=C(c4ncc(C(=O)NC)nc4C)CC3)cc2[nH]c1=O
inhibition [3]: 85.4% | inhibition at 0.1 µM (MDA-MB-436 [1]): 41.1% | inhibition [2]: 77.2%

CCc1cc2ncc(CN3CC=C(c4ccc(C#N)s4)CC3)cc2[nH]c1=O
inhibition at 0.1 µM (MDA-MB-436 [1]): 45% | inhibition [2]: 46.2%

CCc1cc2ncc(CN3CC=C(c4ncccc4C(=O)NC)CC3)cc2[nH]c1=O
inhibition at 0.1 µM (MDA-MB-436 [1]): 26.7% | inhibition [2]: 15%

CCc1cc2ncc(CN3CC=C(c4cnccc4C(=O)NC)CC3)cc2[nH]c1=O
inhibition at 0.1 µM (MDA-MB-436 [1]): 18.5% | inhibition [2]: 7.4%

CCc1cc2ncc(CN3CC=C(c4cc(F)c(C#N)cn4)CC3)cc2[nH]c1=O
pIC50 [4]: 6.89 | AUC(0-t) at 96 h [5]: 16400 ng·h/mL | pIC50 (MDA-MB-436 [6]): 8.55 | pIC50 [7]: 9.55 | Cmax [8]: 3020 ng/mL | inhibition [3]: 87.4% | half-life [9]: 5.26 h | inhibition [2]: 88.6% | CL/F [10]: 1 mL/min/kg

CCc1cc2ncc(CN3CC=C(c4ncc(C#N)cc4C)CC3)cc2[nH]c1=O
inhibition at 0.1 µM (MDA-MB-436 [1]): -10.9% | inhibition [2]: 15.9%

CCc1cc2ncc(CN3CC=C(c4ccc(C(=O)NC)nc4N)CC3)cc2[nH]c1=O
inhibition at 0.1 µM (MDA-MB-436 [1]): 19.5% | inhibition [2]: 27.2%

CCc1nc2ccc(CN3CCN(c4ccc(C(=O)NC)nc4F)CC3)c(F)c2[nH]c1=O
pIC50 (MDA-MB-436 [6]): 7.06

CCc1cc2ncc(CN3CC=C(c4ccc([N+](=O)[O-])cc4F)CC3)cc2[nH]c1=O
pIC50 [4]: 7.43 | pIC50 (MDA-MB-436 [6]): 7.59 | pIC50 [7]: 9.33 | inhibition [3]: 98.1% | inhibition [2]: 72.1%

CCc1cc2ncc(CN3CC=C(c4cc(F)c(C)c(F)c4)CC3)cc2[nH]c1=O
inhibition at 0.1 µM (MDA-MB-436 [1]): 22.2% | inhibition [2]: 27.5%

CCc1cc2ncc(CN3CC=C(c4cnc5ccnn5c4)CC3)cc2[nH]c1=O
inhibition at 0.1 µM (MDA-MB-436 [1]): 13.6% | inhibition [2]: 46.3%

CCc1cc2ncc(CN3CC=C(c4cc(F)c(C#N)c(F)c4)CC3)cc2[nH]c1=O
pIC50 (MDA-MB-436 [6]): 7.79 | inhibition at 0.1 µM (MDA-MB-436 [1]): 51.9% | inhibition [2]: 31.3%

CCc1cc2ncc(CN3CC=C(c4c(F)cc(C#N)cc4F)CC3)cc2[nH]c1=O
inhibition at 0.1 µM (MDA-MB-436 [1]): 16.3% | inhibition [2]: 10.5%

CNC(=O)c1ccc(N2CCN(Cc3cnc4cc(C)c(=O)[nH]c4c3)CC2)c(F)n1
pIC50 [4]: 7.72 | pIC50 (MDA-MB-436 [6]): 6.94 | pIC50 [7]: 9.49 | inhibition [3]: 98.3% | inhibition [2]: 75%

CCc1cc2ncc(CN3CC=C(c4cnc(C(=O)NC)nc4)CC3)cc2[nH]c1=O
pIC50 (MDA-MB-436 [6]): 7.54 | inhibition at 0.1 µM (MDA-MB-436 [1]): 52.6% | inhibition [2]: 47.1%

CCc1cc2ncc(CN3CC=C(c4cccnc4N)CC3)cc2[nH]c1=O
inhibition at 0.1 µM (MDA-MB-436 [1]): 14.4% | inhibition [2]: 56.5%

CCc1cc2ncc(CN3CC=C(c4ccc(C#N)cc4)CC3)cc2[nH]c1=O
inhibition [3]: 91.7% | inhibition at 0.1 µM (MDA-MB-436 [1]): 37.9% | inhibition [2]: 75.6%

CCc1cc2ncc(CN3CC=C(c4ccc(C(F)(F)F)nc4)CC3)cc2[nH]c1=O
inhibition [3]: 82.3% | inhibition at 0.1 µM (MDA-MB-436 [1]): -4.1% | inhibition [2]: 56.9%

CCc1cc2ncc(CN3CC=C(c4ccc(F)cn4)CC3)cc2[nH]c1=O
pIC50 [4]: 7.19 | pIC50 (MDA-MB-436 [6]): 8.19 | pIC50 [7]: 9.55 | inhibition [3]: 93.9% | inhibition [2]: 91.4%

CCc1cc2ncc(CN3CCN(c4ccc(C(=O)NC)nc4F)CC3)c(F)c2[nH]c1=O
pIC50 (MDA-MB-436 [6]): 7.37

CCc1cc2ncc(CN3CC=C(c4ccc(C(=O)NC)c(F)c4F)CC3)cc2[nH]c1=O
inhibition at 0.1 µM (MDA-MB-436 [1]): 16.1% | inhibition [2]: 46.1%

CCc1cc2ncc(CN3CCN(c4ccc(C#N)cc4F)CC3)cc2[nH]c1=O
pIC50 (MDA-MB-436 [6]): 8.39

CCc1cc2ncc(CN3CC=C(c4cc(C)c(F)c(C)c4)CC3)cc2[nH]c1=O
inhibition at 0.1 µM (MDA-MB-436 [1]): 23.6% | inhibition [2]: -3.8%

CCc1cc2ncc(CN3CC=C(c4ccc(C)c(F)c4)CC3)cc2[nH]c1=O
inhibition at 0.1 µM (MDA-MB-436 [1]): 28.2% | inhibition [2]: 54.4%

CCc1cc2ncc(CN3CC=C(c4ccc(C)cc4F)CC3)cc2[nH]c1=O
inhibition [3]: 75.4% | inhibition at 0.1 µM (MDA-MB-436 [1]): 5% | inhibition [2]: 61.7%

CCc1cc2ncc(CN3CC=C(c4cnc(C#N)cn4)CC3)cc2[nH]c1=O
inhibition at 0.1 µM (MDA-MB-436 [1]): 47.5% | inhibition [2]: 45.8%

CNC(=O)c1ccc(N2CCN(Cc3cnc4cc(C5CC5)c(=O)[nH]c4c3)CC2)c(F)n1
pIC50 (MDA-MB-436 [6]): 8.39

CCc1cc2ncc(CN3CCN(c4ccc([N+](=O)[O-])cc4F)CC3)cc2[nH]c1=O
pIC50 (MDA-MB-436 [6]): 8.74

CCc1cc2ncc(CN3CC=C(c4cnc(F)c(F)c4)CC3)cc2[nH]c1=O
inhibition [3]: 77.3% | inhibition at 0.1 µM (MDA-MB-436 [1]): 37.7% | inhibition [2]: 72.3%

CCc1cc2ncc(CN3CC=C(c4ccc(N)nc4)CC3)cc2[nH]c1=O
inhibition at 0.1 µM (MDA-MB-436 [1]): 31.1% | inhibition [2]: 10%

CCc1cc2ncc(CN3CC=C(c4ncccc4C#N)CC3)cc2[nH]c1=O
inhibition at 0.1 µM (MDA-MB-436 [1]): 5.9% | inhibition [2]: -9.3%

CCc1cc2ncc(CN3CC=C(c4ccccc4C#N)CC3)cc2[nH]c1=O
inhibition at 0.1 µM (MDA-MB-436 [1]): 44.8% | inhibition [2]: 51.6%

CCc1cc2ncc(CN3CCN(c4cc(F)c(C#N)cn4)CC3)cc2[nH]c1=O
AUC(0-t) at 96 h [5]: 16000 ng·h/mL | pIC50 (MDA-MB-436 [6]): 8.72 | Cmax [8]: 2250 ng/mL | half-life [9]: 6.3 h | CL/F [10]: 1 mL/min/kg

CCc1cc2ncc(CN3CCN(c4ccc(C(=O)NC)nc4F)CC3)cc2[nH]c1=O
pIC50 [4]: 7.06 | pIC50 (MDA-MB-436 [6]): 8.55 | pIC50 [7]: 9.19 | inhibition [3]: 93.8% | inhibition [2]: 95.2%

CCc1cc2ncc(CN3CC=C(c4ccc(C(=O)NC)nc4OC)CC3)cc2[nH]c1=O
inhibition at 0.1 µM (MDA-MB-436 [1]): 31.3% | inhibition [2]: 38.8%

CCc1cc2ncc(CN3CC=C(c4ccc(C#N)cc4F)CC3)cc2[nH]c1=O
pIC50 [4]: 7.21 | pIC50 (MDA-MB-436 [6]): 8.28 | pIC50 [7]: 9.77 | inhibition [3]: 92.3% | inhibition [2]: 96.9%

CCc1cc2ncc(CN3CC=C(c4ccc(OC)nc4C)CC3)cc2[nH]c1=O
inhibition at 0.1 µM (MDA-MB-436 [1]): 24% | inhibition [2]: 40.9%
